Results taken from PubChem BioAssay (NCI).
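Step 1: Grow cells in 96-well plates. Step 2: Expose to compound for 48 hours at 5 concentrations. Step 3: Interpolate endpoints linearly; if unreached, use highest concentration. GI50 marks 50% less growth. TGI is the concentration that stops growth completely.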

What was measured:
Experiment in all cases: NCI-60 cell line screen, 48 h
ACHN renal = test system: ACHN renal
CCRF-CEM leukemia = test system: CCRF-CEM leukemia
COLO 205 colon = test system: COLO 205 colon
NCI-H23 lung = test system: NCI-H23 lung
OVCAR-8 ovarian = test system: OVCAR-8 ovarian
SK-MEL-5 melanoma = test system: SK-MEL-5 melanoma
SN12C renal = test system: SN12C renal
SNB-19 CNS = test system: SNB-19 CNS
MDA-MB-435 = test system: MDA-MB-435
T-47D breast = test system: T-47D breast

SMILES	TGI (ACHN renal) [µM]	TGI (CCRF-CEM leukemia) [µM]	TGI (COLO 205 colon) [µM]	TGI (NCI-H23 lung) [µM]	TGI (OVCAR-8 ovarian) [µM]	TGI (SK-MEL-5 melanoma) [µM]	TGI (SN12C renal) [µM]	TGI (SNB-19 CNS) [µM]	GI50 (ACHN renal) [µM]	GI50 (CCRF-CEM leukemia) [µM]	GI50 (COLO 205 colon) [µM]	GI50 (NCI-H23 lung) [µM]	GI50 (OVCAR-8 ovarian) [µM]	GI50 (SK-MEL-5 melanoma) [µM]	GI50 (SN12C renal) [µM]	GI50 (SNB-19 CNS) [µM]	GI50 (MDA-MB-435) [µM]	TGI (MDA-MB-435) [µM]	GI50 (T-47D breast) [µM]	TGI (T-47D breast) [µM]
O=C(O)[C@@H]1CCCC[C@@H]1C(=O)N(C1CCCCC1)C1CCCCC1	> 100	> 100	> 100	> 100	> 100	> 100	> 100	–	–	–	–	–	–	–	–	–	–	–	–	–
CCOC1=C2NC(Cc3ccc(F)cc3)=NC2C(=O)c2ccccc21 (stereo not drawn)	> 100	61.8	87.5	53.4	61.9	–	–	–	–	–	–	–	–	–	–	–	–	–	–	–
C/C(=N/O)c1ccc2c(c1)C(=NO)c1cc(/C(C)=N/O)ccc1-2	20.8	–	38.5	35.3	32.3	28.5	33.6	26.8	–	–	–	–	–	–	–	–	–	–	–	–
CC(=O)OCCC(O[Si](c1ccccc1)(c1ccccc1)C(C)(C)C)C(C)(C)O (stereo not drawn)	> 100	67.6	30.3	68.7	> 100	> 100	34.2	> 100	–	–	–	–	–	–	–	–	–	–	–	–
CC(=O)[CH-]C(=O)c1ccccc1.CC(=O)[CH-]C(=O)c1ccccc1.[CH2-]CCC.[CH2-]CCC.[Sn+4]	2.86	0.745	2.47	1.77	3.1	1.97	2.68	2.73	1.49	0.261	0.984	0.476	1.36	0.625	1.14	1.3	–	–	–	–
CC12OC(C(=O)C13CCC3)C1C(=O)c3ccccc3C(=O)C12 (stereo not drawn)	> 100	> 100	> 100	> 100	> 100	–	> 100	> 100	> 100	36.9	> 100	38	61.8	–	76.7	> 100	> 100	> 100	44	> 100
O=[N+]([O-])C1C2C=CC(C2)[C@H]1c1ccc(Cl)cc1Cl (stereo partly drawn)	> 100	> 100	–	> 100	> 100	24.7	> 100	> 100	–	–	–	–	–	–	–	–	–	–	–	–
NC(=O)c1c[se]c(C2OC(COP(=O)(O)CP(=O)(O)OCC3OC(n4cnc5c(N)ncnc54)C(O)C3O)C(O)C2O)n1 (stereo not drawn)	> 100	> 100	> 100	> 100	> 100	> 100	> 100	> 100	–	–	–	–	–	–	–	–	–	–	–	–
COc1ccc(C2NCCc3c2[nH]c2ccccc32)cc1 (stereo not drawn)	> 100	> 100	> 100	> 100	> 100	66.1	> 100	> 100	–	–	–	–	–	–	–	–	–	–	–	–
O=C1C(c2ccccc2)=C(c2ccccc2)[C@H](c2ccccc2)[C@]1(Cc1nnn(-c2ccc([N+](=O)[O-])cc2)c1N1CCOCC1)c1ccccc1	> 37.5	> 37.5	> 37.5	> 37.5	> 37.5	> 37.5	> 37.5	> 37.5	–	–	–	–	–	–	–	–	–	–	–	–
CCC(=O)c1cc([N+](=O)[O-])c(Br)s1	3.26	–	3.56	49.2	5.04	30.4	24.1	35.3	1.71	–	1.99	17.3	2.23	16.5	8.3	17.4	4.77	18.7	–	–
